This note sets out measurements from patent US20220054588A1, “USE OF SAP FOR THE TREATMENT OF EUROTIOMYCETES FUNGI INFECTIONS” (HUMANITAS MIRASOLE S.P.A., priority 2018, published 2022).

The test system of assay [1] is A. fumigatus conidia. Kind of assay: Resazurin-based fungal viability assay. The conditions noted are these: for microbicidal activity: 1 min, conidia pre-opsonised with human SAP. On the set-up: species or system Aspergillus fumigatus. On the procedure: FIG. 12 depicts the therapeutic efficacy of SAP in treatment of invasive aspergillosis. a) b) c) survival of transiently immunosuppressed wt mice after injection with the indicated doses of AF conidia. The curve of untreated mice (n=3) with cyclophosphamide is also shown (a). Human SAP (4 mg/Kg) was injected at 2 h and 24 h after infection. a) AF 5.10^7, n=17; AF 5.10^7+SAP, n=15; b) AF 1.10^7, n=7; AF 1.10^7+SAP, n=8; c) AF 5.10^6, n=8; AF 5.10^6+SAP, n=10.***, P<0.005 SAP-treated vs. saline (Mantel-Cox test). One-way ANOVA, P<0.0001. d) lung CFU in mice treated with cyclophosphamide and infected with 1.10^7 AF conidia.*, P<0.05 (Mann-Whitney test). e) quantitative analysis of AF viability performed using a resazurin-based assay. Plasma (30%) from wt and Apcs^−/− mice were incubated (1 min) with 1.5×10^5 AF conidia pre-opsonized or not with SAP. Results are mean±SD of red fluorescence (excitation/emission 535/580-610 nm) intensity of the resazurin once reduced to resorufin within viable cells. Effect of Posaconazole (POC; 1 μM) exposure is also shown. Results are mean±SEM relative to the condition without serum (grey symbols) of two experiments performed with n=10 mice/group. […] AF viability assay performed in sera depleted from complement components. Figure summarizes one experiment out of 5 also conducted with serum 10%. Mean±SD.*, P<0.05; **, P<0.01 (unpaired t-test). g) and h) FACS analysis of MAC deposition on AF conidia (1×10^7) in presence of sera depleted from complement components (e) and the effect of SAP (f). Mean±SEM of 2 experiments performed out of 4. e, f,*, P<0.05;**, P<0.01;***, P<0.005;****, P<0.001; (Mann-Whitney test).
Fungal viability assay. Effect of SAP on A. fumigatus killing was evaluated by a resazurin-based cell viability assay as described (Mantovani et al., 2010). A volume of 10 μl PBS, pH 7.4, containing 1.5×10^5 conidia eventually opsonized with human SAP (100 μg/ml per 1×10^9 conidia, 1 h at r.t.) was placed into sterile round bottom Corning® 96-well polypropylene microplate and incubated for 1 and 30 min at 37° C. with 20 μl of 10 and 30% plasma-heparin from wt and Apcs^−/− mice or human serum and different complement component-depleted sera. After incubation, plates were immediately cooled on ice and cold-centrifuged (2000 rpm, 10 min at 4° C.), and then supernatant removed. Conidia not incubated with plasma or serum were used as a negative control. Conidia treated with the fungicide drug Posaconazole (POC; 1 μM) were considered as positive control in the assay. […] After 17 h reaction at 37° C., fluorescence (excitation/emission at ≈530-560/590 nm) intensity was measured by microplate reader Synergy™ H4 (BioTek, France). Results represent ratio of fluorescence intensity values relative to those measured in negative controls. […]
For orientation: Alamar Blue is a resazurin reagent that responds to reducing activity.

Assay [2] has as its system complement activation on A. fumigatus conidia. Kind of assay: Complement C3 deposition on A. fumigatus conidia and C5a formation in mouse plasma. The conditions noted are these: Sap-opsonised conidia. The format is biochemical. On the procedure: FIG. 6 depicts the effect of SAP on complement activation on A. fumigatus. a) FACS analysis of plasma C3 deposition on AF conidia (1×10^7) opsonized or not with Sap. b) plasma C5a levels after incubation with AF conidia shown in a. a) and b) n=10 mouse plasma/genotype. b) representative experiment out of three performed. a) and b) Mean±SEM.*, P<0.05;**, P<0.01;***, P<0.005;****, P<0.0001 (unpaired t-test).
Complement deposition on Aspergillus fumigatus. A volume of 10 μl PBS, pH 7.4, containing 1×10^7 conidia eventually opsonized with murine SAP (100 μg/ml per 1×10^9 conidia, 1 h at r.t.) was incubated (37° C.) in round bottom wells of Corning® 96-well polypropylene microplates for the indicated time points with 20 μl mouse plasma-heparin or 20 μl human NS and complement depleted sera (diluted in PBS at 10% and 30%). Complement deposition was blocked by addition of EDTA (10 mM final concentration) and by cooling in ice. After centrifugation (2000 rpm, 10 min at 4° C.), when indicated supernatant was collected for C5a measurement by ELISA. […] Conidia were then incubated (1 h, at 4° C.) with Alexa Fluor® 488 and 647-conjugated species-specific cross-adsorbed detection antibodies (2 μg/ml; ThermoFisher Scientific-Molecular Probes) and analysed by BD FACS Canto™ II Flow Cytometer (BD Biosciences) using forward and side scatter parameters to gate on at least 8,000 conidia. […] Results were expressed as frequency of conidia showing fluorescence compared with irrelevant controls and as geometric conidia MFI.
Proteins. […] Purity of the recombinant protein was assessed by SDS-PAGE followed by silver staining. […] SAP levels were measured in mouse plasma by ELISA (DuoSet ELISA; R&D Systems). Murine TNF-α, CCL2, MPO were measured by ELISA (DuoSet ELISA; R&D Systems). Murine C5a was measured either in plasma-heparin or in BALFs previously stored at −80° C. by DuoSet ELISA (R&D Systems) maintaining EDTA (10 mM) throughout the assay in order to stop the activation of the complement cascade.

“human native SAP: Native SAP from human serum purchased by Merck-Millipore; Serum Amyloid P component, SEQ ID NO: 1”: the microbicidal activity result in assay [1] (Apcs−/− mouse plasma) and in assay [1] (wt mouse plasma) was “increase of microbicidal activity” throughout. Also, the “SAP effect on microbicidal activity” value in assay [1] (human serum depleted of C1q) and in assay [1] (human serum depleted of C3) was “abolished” each time.

B1: recombinant murine SAP: recombinant murine SAP from mouse myeloma cell line NSO (R&D Systems) (protein, UniProt P12246 21-224, looked up)
Serum amyloid P-component: QTDLKRKVFVFPRESETDHVKLIPHLEKPLQNFTLCFRTYSDLSRSQSLFSYSVKGRDNELLIYKEKVGEYSLYIGQSKVTVRGMEEYLSPVHLCTTWESSSGIVEFWVNGKPWVKKSLQREYTVKAPPSIVLGQEQDNYGGGFQRSQSFVGEFSDLYMWDYVLTPQDILFVYRDSPVNPNILNWQALNYEINGYVVIRPRVWD
For the molecule B1, the “in vitro C3 deposition on A. fumigatus conidia” value in assay [2] (Apcs−/− and wt plasma) is reported as “rescued or increased”. The C5a formation result is on record as “rescued” in assay [2] (Apcs−/− plasma, 1, 5, 10, 20 min) and “increased” in assay [2] (wt plasma).
